“Also recorded” adds a separate entry of the source. Like-named read-outs stand apart in the source and are kept apart here.
Key:
[1] = test system: BDNF exon IV expression in cochlear neurons; experiment: Salicylate-induced acute tinnitus: effect of test substance on BDNF/c-fos expression in cochlear neurons (RT-PCR); format: in vivo, rat
[2] = test system: Arc expression in auditory cortex; experiment: Salicylate-induced acute tinnitus: effect of test substance on gene expression in the auditory cortex (RT-PCR); format: in vivo, rat; conditions: systemic 0.5 mg/kg, 2.5 hours after 350 mg/kg salicylate, n=12, p<0.05
Description: Rnase H reverse transcriptase according to the Invitrogen protocol.
Two and half hours after the induction of acute tinnitus by injection of 350 mg/kg salicylate, the animals received systemic administration of midazolam (Dormicum, Roche, Grenzach-Wyhlen, Germany) (0.5 mg/kg of body weight), and gene expression was investigated after removal of organs with the aid of RT-PCR. […] Statistical analysis was carried out with Student's T test; *=p<0.05.
In a further experiment corresponding to the above, a GABA receptor agonist was administered, under conditions which were otherwise identical, not systemically but locally into the niche of the round window.

[3] = test system: c-fos, BDNF exon-III, BDNF exon-IV and Arc in auditory cortex
Description: Total RNA was isolated using the total RNeasy kit from Qiagen both from the cochlea and from brain tissue and was treated with DNase (Ambion) in order to remove DNA contaminants. The RNA was then purified and the concentration was determined by spectrometric measurements. Reverse transcription of the brain tissue was carried out in a reaction volume of 20 μl using 1 μg of total RNA as template and [sequence] II Rnase H reverse transcriptase according to the Invitrogen protocol. Because of the limited amount of RNA in the cochlear tissues, Qiagen Senscript reverse transcriptase was used, as described in the Qiagen protocol, using 50 ng of total RNA as template. The number of cycles and the annealing temperature for the PCR was optimized so that the signals obtained for BDNF, c-fos and glyceraldehyde-3-phosphate dehydrogenase (GAPDH) were not saturated.
The PCR was carried out in a final reaction volume of 25 μl, using both primers for GAPDH and the activity-dependent genes simultaneously. In this duplex PCR reaction, a housekeeping gene in the same PCR reaction represents an internal control, so that the intensity of the activity-dependent gene can be compared unambiguously with the control and the treated samples. PCR ready-to-go beads from Amersham Pharmacia were used in order to ensure a standardization of the PCR conditions and to reduce contamination during pipetting. Finally, the PCR products were analyzed in a 2% agarose gel which was visualized using an ethidium bromide stain and densitometric analysis using an Alpha Imager 2200 from Biometra. The intensity of the amplified activity-dependent gene was normalized for each reaction to the level of the coamplified GAPDH. The amplification conditions for arc, BDNF, c-fos and GAPDH were for the initial denaturation phase of 94° C. for three minutes, 30 cycles each of one minute of denaturation (94° C.), one minute of annealing (54° C.), 1.5 minutes of extension (72° C.) and a final extension phase of ten minutes at 72° C.
The auditory cortices investigated were obtained from animals in which the cochlea were investigated for the dose-dependent effect of salicylate, the mRNA was isolated and an RT-PCR was carried out as described under Material and Methods.

[4] = test system: c-fos, BDNF exon-III and BDNF exon IV transcripts in cochlear tissue
Description: (§1) The rats were anesthetized intraperitoneally by the method of Guitton, M. J. et al. (2003), Salicylate induces tinnitus through activation of cochlear NMDA receptors, J. Neurosci. 23, pages 3944 to 3952, in order to place a so-called gel foam (Gelita Tampon; B. Braun Medical, Melsungen, Germany) over the round window of both ears. The gel foam was impregnated as indicated with salicylate, which was diluted in artificial perilymph solution (70 mg/ml), or with the corresponding volume of artificial perilymph alone. The gel foam was in the niche of the round window as described; Guitton J. et al. (loc. cit.). The salicylate was locally administered thus for 20 hours. After this time, the animals were sacrificed and the cochlea and the auditory cortex were removed.

[5] = before and 20 hours after local salicylate, 5 μl, 70 mg/kg, n=5
From the text: Adult female Wistar rats weighing between 280 and 300 grams were used for the experiments. The treatment and handling of these animals took place in conformity with the institutional guidelines of Tübingen University, Tierforschungsanstalt.
as §1
The anesthesia of the animals and the ABR screening was carried out as described previously; cf. Knipper, M. et al. (2000), loc. cit.; Schimmang, T. et al. (2003), Lack of BDNF and trkB signalling in the postnatal cochlea leads to a spatial reshaping of innervation along the tonotopic axis and hearing loss, Development 130, pages 4741 to 4750. […]

[6] = test system: c-fos, BDNF exon-III and BDNF exon IV in cochlear spiral ganglia; conditions: local 5 μl 70 mg/ml and systemic 350 mg/kg, versus artificial perilymph
Description: Carbon dioxide was used for deep anesthesia of the animals, which were then decapitated. The cochleae were isolated and prepared as described previously; cf. […] Briefly, the cochleae were fixed by immersion in 2% paraformaldehyde, 125 mM sucrose in 100 mM phosphate-buffered saline (PBS), pH 7.4, for two hours and, following the fixation, decalcified in rapid bond decalcifier (#904687, Eurobio, Fisher-Scientific, 61130 Nidderau, Germany) for 45 minutes, subsequently followed by incubation in 25% sucrose, 1 mM protease inhibitor (Pefabloc, Roche) in Hanks buffered saline overnight. Following the overnight incubation, the cochleae were embedded in O.C.T. compound (Miles Laboratories, Elkhart, Ind., USA). The tissues were then cryosectioned with a thickness of 10 μm for the in situ hybridization, stored on SuperFrost*/plus slides and stored at −20° C. before use.
Genomic DNA from rat liver tissue was isolated using the Easy DNA kit from Invitrogen in accordance with the manufacturer's information. A polymerase chain reaction was carried out in order to amplify all four non-coding 5′ exons of the BDNF gene.
In the PCR reaction, the genomic DNA was first denatured at 94° C. for four minutes, followed by 30 cycles of one minute at 94° C., one minute at 55° C. and one minute at 72° C. The extension reaction was carried out at 70° C. for 10 minutes. […]

[7] = increasing amounts of salicylate locally into round window niche, n=3

In the case of `COC(=O)C1=C(C)NC(C)=C(C(=O)OC(C)C)C1c1cccc2nonc12` (centres unmarked) [isradipine], the “salicylate-induced upregulation of BDNF (exon IV) in cochlear neurons” value ([1]; 10 μl of 10 mM solution locally at round window 22 hours before tissue removal, salicylate 350 mg/kg systemic 3 hours before) is reported as “inhibited”.

In the case of `Cc1ncc2n1-c1ccc(Cl)cc1C(c1ccccc1F)=NC2` [midazolam], the “effect of salicylate on the expression of Arc in the auditory cortex” value [2] is reported as “significant reduction”, the “effect of salicylate on the expression of BDNF exon-IV in cochlear neurons” value ([1]; systemic 0.5 mg/kg, 2.5 hours after 350 mg/kg salicylate, n=7, p<0.05) is reported as “significant reduction; also recorded: significantly reduced; also recorded: inhibited” and the “effect on salicylate-changed expression of c-fos” value ([1]; systemic 0.5 mg/kg, 2.5 hours after 350 mg/kg salicylate, n=7 to 12) is reported as “remains incapable of being influenced”.

With `O=C(O)c1ccccc1O` [salicylate] the “decrease in the expression of BDNF exon-IV (densitometric analysis)” value ([3]; auditory cortex, n=8, p<0.05) was 49±12%, the “decrease in the expression of c-fos (densitometric analysis)” value ([3]; auditory cortex, n=8, p<0.05) was 69±11% and the “expression of Arc in the auditory cortex” value [3, 7] was “decreased”. For the same compound, the “expression of c-fos, BDNF exon-III and BDNF exon-IV in the auditory cortex” value ([3]; local administration, all dosages of salicylate) was “reduction”, the “expression of Arc in the primary auditory cortex” value ([3]; systemic 350 mg/kg salicylate) was “decrease” and the “increase in the expression of BDNF exon-IV (densitometric analysis)” value ([4]; cochlea, n=8, p<0.05) was 49±12%. The “increase in the expression of c-fos (densitometric analysis)” value ([4]; cochlea, n=8, p<0.05) was 69±11%, the “c-fos expression in cochlear tissue” value ([4]; gel foam local, 5 μl, 70 mg/ml, found at 20 hours, not at three hours) was “significant upregulation” and the “expression of the BDNF exon-IV transcript in cochlear neurons” value [4, 7] was “increased”. For the same compound, the “expression of BDNF exon-IV and c-fos in cochlear neurons” value ([4]; systemic 350 mg/kg salicylate) was “elevated expression”, the “c-fos expression in cochlear tissue” value ([4]; systemic i.p. 350 mg/kg of body weight, after three hours) was “upregulation” and the “frequency-specific ABR screening” value [5] was “no loss of hearing”. For the same compound, the “hybridization signals for c-fos, BDNF exon-III and BDNF exon IV in the middle basal cochlear turn” value [6] was “significantly increased”.
